Measurements: article PMC8764113 (Nature Communications, 2022)

Assays:
PECPS N199F = PECPS N199F (Aquilaria sinensis, UniProt A0A385MEG6, N199F); test: ITC binding to PECPS N199F mutant
Experimental: ITC measurements of affinity (KD), stoichiometry (n) and apparent enthalpy change (ΔH°) were obtained using a Nano LV ITC calorimeter (TA Instruments). Samples for cell and injectant solutions were prepared in the same buffer (100 mM KPB, pH 7.5). All experiments were conducted at 37 °C with a stirring speed of 240 rpm and a sequence of 20 injections of 2.5 μL and 380 s delays between succeeding injections. The sample cell was filled with 47–85 μM protein solution (300 μl), while 1.09 mM 4-hydroxyphenylpropionyl-CoA (or 1.15 mM benzoyl-CoA) solution was placed in the syringe. The resulting data were processed with the standard NanoAnalyze software package (version 3.11.0), assuming the model of one type of binding site with an apparent stoichiometry close to 1:1. The first injection resulting in a heat change was disregarded in the later analysis. Titration experiments were performed in triplicate to show reproducibility. Control experiments confirmed that the heats of dilution caused by the reactant being titrated into buffer and the buffer into protein solution were negligible. The heats of dilution for the sample in the cell were subtracted from the final trace before integration with respect to time. The thermodynamic data obtained from the traces were averaged across three runs, and a standard deviation was calculated. […]

PECPS N199L = PECPS N199L (Aquilaria sinensis, UniProt A0A385MEG6, N199L); test: ITC binding to PECPS N199L mutant
Experimental: (§1) ITC measurements of affinity (KD), stoichiometry (n) and apparent enthalpy change (ΔH°) were obtained using a Nano LV ITC calorimeter (TA Instruments). Samples for cell and injectant solutions were prepared in the same buffer (100 mM KPB, pH 7.5). All experiments were conducted at 37 °C with a stirring speed of 240 rpm and a sequence of 20 injections of 2.5 μL and 380 s delays between succeeding injections. The sample cell was filled with 47–85 μM protein solution (300 μl), while 1.09 mM 4-hydroxyphenylpropionyl-CoA (or 1.15 mM benzoyl-CoA) solution was placed in the syringe. The resulting data were processed with the standard NanoAnalyze software package (version 3.11.0), assuming the model of one type of binding site with an apparent stoichiometry close to 1:1. The first injection resulting in a heat change was disregarded in the later analysis. Titration experiments were performed in triplicate to show reproducibility. Control experiments confirmed that the heats of dilution caused by the reactant being titrated into buffer and the buffer into protein solution were negligible. The heats of dilution for the sample in the cell were subtracted from the final trace before integration with respect to time. The thermodynamic data obtained from the traces were averaged across three runs, and a standard deviation was calculated. Representative ITC thermograms and isotherm plots for experiments can be found in Supplementary Fig. 35.
(§2) Plasmids expressing the PECPS mutants (A210E, F340W, N199L, and N199F) were generated by the Fast Mutagenesis System ([…] BIOTECH) according to the manufacturer’s instructions, using designed primers (Supplementary Table 5). The mutant enzymes were expressed, extracted, and purified by the same procedure as that for the wild type PECPS, and used in the enzyme assay and for crystallization.

PECPS F340W = PECPS F340W (Aquilaria sinensis, UniProt A0A385MEG6, F340W); test: ITC binding to PECPS F340W mutant
Experimental: as §1, §2

PECPS A210E = PECPS A210E (Aquilaria sinensis, UniProt A0A385MEG6, A210E); test: ITC binding to PECPS A210E mutant
Experimental: as §1, §2

wild type PECPS = wild type PECPS (Aquilaria sinensis, UniProt A0A385MEG6); test: ITC binding to wild type PECPS; conditions: mean ± SD (n = 3)
Experimental: as §1

Sequence of PECPS A210E (A0A385MEG6 entry or part of it A210E): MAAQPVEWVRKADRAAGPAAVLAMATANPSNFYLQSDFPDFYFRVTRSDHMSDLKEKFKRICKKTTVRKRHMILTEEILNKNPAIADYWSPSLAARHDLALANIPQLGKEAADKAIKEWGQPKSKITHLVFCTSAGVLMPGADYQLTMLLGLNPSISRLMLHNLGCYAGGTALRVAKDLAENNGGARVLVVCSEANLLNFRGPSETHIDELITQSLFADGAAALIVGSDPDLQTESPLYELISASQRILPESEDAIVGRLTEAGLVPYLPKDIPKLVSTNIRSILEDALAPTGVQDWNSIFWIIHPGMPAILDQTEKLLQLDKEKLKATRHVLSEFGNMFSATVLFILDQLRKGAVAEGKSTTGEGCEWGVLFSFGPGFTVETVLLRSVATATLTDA
Sequence of PECPS N199L (A0A385MEG6 entry or part of it N199L): as the sequence (A0A385MEG6 entry or part of it A210E) above, with N199L, E210A counted along it
Sequence of PECPS F340W (A0A385MEG6 entry or part of it F340W): as the sequence (A0A385MEG6 entry or part of it A210E) above, with E210A, F340W counted along it
Sequence of wild type PECPS (A0A385MEG6 entry or part of it): as the sequence (A0A385MEG6 entry or part of it A210E) above, with E210A counted along it
Sequence of PECPS N199F (A0A385MEG6 entry or part of it N199F): as the sequence (A0A385MEG6 entry or part of it A210E) above, with N199F, E210A counted along it

CC(C)(COP(=O)(O)OP(=O)(O)OC[C@H]1O[C@@H](n2cnc3c(N)ncnc32)[C@H](O)[C@@H]1OP(=O)(O)O)[C@@H](O)C(=O)NCCC(=O)NCCSC(=O)CCc1ccc(O)cc1 [4-hydroxyphenylpropionyl-CoA]
Kd (PECPS N199F): ~1000 µM | Kd (PECPS N199L): 120 ± 10.8 µM | Ka (PECPS N199L; ITC, mean ± SD (n = 3)): 8.35 ± 0.71 mM⁻¹ | n (stoichiometry) (PECPS N199L; ITC, mean ± SD (n = 3)): 0.87±0.06 | ΔG (PECPS N199L; ITC, mean ± SD (n = 3)): -5.564 ± 0.055 kcal/mol | ΔH (PECPS N199L; ITC, mean ± SD (n = 3)): -4.708 ± 0.402 kcal/mol | ΔS (PECPS N199L; ITC, mean ± SD (n = 3)): 11.50 ± 4.86 J/molꞏK | binding affinity, times weaker than that of wild type PECPS (PECPS N199L; N199L vs wild type PECPS, ITC): 6.5 times | Kd (PECPS F340W): 12.4 ± 2.07 µM | -TΔS (PECPS F340W; ITC, mean ± SD (n = 3)): -5.251 ± 0.28 kcal/mol | Ka (PECPS F340W; ITC, mean ± SD (n = 3)): 82.07 ± 12.96 mM⁻¹ | n (stoichiometry) (PECPS F340W; ITC, mean ± SD (n = 3)): 0.91±0.06 | ΔG (PECPS F340W; ITC, mean ± SD (n = 3)): -6.969 ± 0.1 kcal/mol | ΔH (PECPS F340W; ITC, mean ± SD (n = 3)): -1.72 ± 0.177 kcal/mol | ΔS (PECPS F340W; ITC, mean ± SD (n = 3)): 70.83 ± 3.75 J/molꞏK | Kd (PECPS A210E): 40.1 ± 4.52 µM | binding affinity, times lower than that of the wild-type (PECPS A210E; A210E vs wild type PECPS, ITC): 2.1 times | -TΔS (PECPS A210E; ITC, mean ± SD (n = 3)): -2.483 ± 0.397 kcal/mol | Ka (PECPS A210E; ITC, mean ± SD (n = 3)): 25.12 ± 2.98 mM⁻¹ | n (stoichiometry) (PECPS A210E; ITC, mean ± SD (n = 3)): 0.99±0.02 | ΔG (PECPS A210E; ITC, mean ± SD (n = 3)): -6.243 ± 0.0717 kcal/mol | ΔH (PECPS A210E; ITC, mean ± SD (n = 3)): -3.76 ± 0.323 kcal/mol | ΔS (PECPS A210E; ITC, mean ± SD (n = 3)): 33.49 ± 5.34 J/molꞏK | -TΔS (wild type PECPS; ITC): -3.748 ± 0.464 kcal/mol | n (stoichiometry) (wild type PECPS; ITC): 1.10±0.12 | ΔH (wild type PECPS; ITC): -2.968 ± 0.425 kcal/mol | ΔS (wild type PECPS; ITC): 50.56 ± 6.28 J/molꞏK | Ka (wild type PECPS; ITC, listed as 4-hydorxyphenylpropionyl-CoA): 54.06 ± 4.14 mM⁻¹ | Kd (wild type PECPS; Supplementary Table 4, ITC): 18.6 ± 1.37 µM
